Results published in paper PMC3613087, “Aldose Reductase Inhibitory Activity of Compounds from Zea mays L” (BioMed Research International, 2013).
Where two headings read alike, the source gives them in different places.

Experiments:
[1] = biological target: T1, rat lens aldose reductase (RLAR) (Rattus norvegicus, UniProt P07943); experiment: Rat lens aldose reductase (RLAR) inhibitory assay, DL-glyceraldehyde as substrate; type: biochemical; conditions: for inhibition at 1 µg/mL: concentration 1 μg/mL; for inhibition at 5 µg/mL: concentration 5 μg/mL; for inhibition at 10 µg/mL: read-out: Inhibition (%) of RLAR; for IC50: least-squares regression of log concentration vs inhibitory activity; for inhibition at 40 µg/mL: concentration 40 μg/mL
T1 construct: from tissue; host or cells: rat lens (Sprague-Dawley) homogenate, partially purified
Method: RLAR activity was assayed according to the methods described by Dufrane et al.. […] The rat lens homogenate was prepared according to the method of Hayman and Kinoshita with some modifications. […] The partially purified material was separated into 1.0 mL aliquots and stored at −40°C. […] Each 1.0 mL cuvette contained equal units of enzyme, 0.05 M sodium phosphate buffer (pH 6.2), and 0.3 mM NADPH with or without 10 mM substrate and inhibitor. For inhibition studies, concentrated stocks of AR inhibitors prepared in DMSO were used, and the final concentration of DMSO was not more than 1%.

[2] = biological target: T2, recombinant human aldose reductase (rhAR) (Homo sapiens, UniProt P15121); experiment: Kinetics of rhAR by active compounds (Lineweaver-Burk plots); type: biochemical; conditions: DL-glyceraldehyde 0.1-1.0 mM
T2 construct: purchased Wako Pure Chemical Industries (Osaka, Japan)
Method: Reaction mixtures consisted of 0.1 M potassium phosphate, 0.16 mM NADPH, and […] of rhAR with varied concentrations of substrate DL-glyceraldehyde and AR inhibitor in a total volume of 200 μL. Concentrations were ranged from 0.1 to 1.0 mM for DL-glyceraldehyde. rhAR activity was assayed spectrophotometrically by measuring the decrease in absorption of NADPH at 340 nm after substrate addition using Biotek Power Wave XS spectrophotometer (Biotek instruments, VT, USA). K m and V max of rhAR were determined with varying concentrations of DL-glyceraldehyde as a substrate in the absence and presence of different concentrations of inhibitor by Lineweaver-Burk double reciprocal plots. Inhibitory constant (K i) was derived by plotting slopes obtained from Lineweaver-Burk plots versus inhibitors concentration.

[3] = test system: galactitol accumulation in rat lens; experiment: Lens culture and intracellular galactitol measurement; type: cell-based; conditions: 30 mM galactose, compound 5 μg/mL; for Galactitol content μg/lens wet weight (g): mean ± SD of triplicate; for inhibition at 5 µg/mL: Rattus norvegicus
Method: Lenses isolated from 10-week-old male rats were cultured for 6 d in TC-199 medium that contained 15% fetal bovine serum 100 U/mL penicillin and 0.1 mg/mL streptomycin under sterile conditions in an atmosphere of 5% CO2 and 95% air at 37°C. Samples were dissolved in DMSO. […] Each lens was placed in well containing 1.0 mL of medium. Lenses from each group were minced in 150 μL of phosphate-buffered saline on ice, homogenized by sonication, and centrifuged at 22.000 g for 10 min at 4°C. The supernatant was filtered through a membrane filter (Ultrafree-MC, nominal molecular weight limit 10,000; Millipore, Bedford, MA, USA) to remove proteins. HPLC analysis for sugar alcohol in lens was performed with this filtrate after being benzoylated.

[4] = test system: galactitol accumulation in rat erythrocytes; experiment: Blood culture and intracellular galactitol measurement; type: cell-based; conditions: 30 mM galactose, 50 μg/mL compound, 3 h; for inhibition at 50 µg/mL: Rattus norvegicus, Erythrocyte
Method: Blood sample was collected in heparin-containing polypropylene tube from 10-week-old male rats. For sugar and sugar alcohol analysis, erythrocytes from heparinized blood were separated from the plasma and buffy coat by centrifuging at 2000 ×g for 10 min. The cells were washed thrice with normal saline (0.9% NaCl) at 4°C. In the final washing, the cells were centrifuged at 2000 ×g for 10 min to obtain a consistently packed cell preparation. The packed cells (1 mL) were then incubated in a Krebs-Ringer bicarbonate buffer (pH 7.4) containing 30 mM galactose in the presence or absence of samples at 37°C in 5% CO2 for 3 h. The erythrocytes were washed with cold saline by centrifuging at 2000 ×g for 10 min, precipitated by adding 6% of cold perchloric acid (3 mL), and centrifuged again at 2000 ×g for 10 min. The supernatant was neutralized with 2.5 M K2CO3 at 4°C and used for galactitol determination. HPLC analysis for sugar and sugar alcohol in blood was performed with this supernatant of red blood cell homogenate after being benzoylated.

[5] = concentration 10 μg/mL, mean of triplicate
[6] = read-out: IC50 (μg/mL) RLAR (converted)

SMILES	inhibition at 1 µg/mL ([1]; mean of triplicate)	inhibition at 5 µg/mL ([1]; mean of triplicate)	inhibition at 10 µg/mL [1, 5]	IC50 ([1]; read-out: IC50 (μM) RLAR)	IC50 [1, 6]	RLAR inhibitory activity (in words) [1]	inhibition at 40 µg/mL ([1]; mean of triplicate)	Inhibition type of rhAR [2]	Galactitol content μg/lens wet weight (g) [3]	inhibition at 5 µg/mL [3]	Galactitol content (μM) in rat erythrocyte [4]	inhibition at 50 µg/mL [4]	inhibition at 10 µg/mL [1]
O=C(O)c1c(O)cc(O)cc1O [2,4,6-trihydroxybenzoic acid (3), 2,4,6-trihydroxybenzoic acid]	16.9%	48.1%	73.7%	34.8 µM	34.8 µM								
COc1cc(-c2oc3cc(O)cc(O)c3c(=O)c2O[C@@H]2O[C@H](CO)[C@@H](O)[C@H](O)[C@H]2O)ccc1O [3′-methoxyhirsutrin (7), 3′-methoxyhirsutrin]	16.4%	73.7%	89.7%	5.67 µM	5.66 µM			uncompetitive	828.35 ± 73.27 μg/lens wet weight (g)	1.86%	20.19 µM	~12%	
O=C(O)CC(=O)OC[C@H]1O[C@@H](Oc2cc3c(O)cc(O)cc3[o+]c2-c2ccc(O)c(O)c2)[C@H](O)[C@@H](O)[C@@H]1O [Cyanidin-3-(6′′-malonylglucoside) (11), cyanidin 3-(6′′-malonylglucoside)]	19%	47.8%	68%	11.7 µM	11.7 µM								
OC[C@H]1O[C@@H](Oc2cc3c(O)cc(O)cc3[o+]c2-c2ccc(O)c(O)c2)[C@H](O)[C@@H](O)[C@@H]1O [Cyanidin-3-glucoside (8), cyanidin-3-glucoside]					> 89 µM	did not RLAR inhibitory activity	47.7%						
O=c1c(O[C@@H]2O[C@H](CO)[C@@H](O)[C@H](O)[C@H]2O)c(-c2ccc(O)c(O)c2)oc2cc(O)cc(O)c12 [Hirsutrin (6), hirsutrin]	27.6%	76.2%	86.7%	4.78 µM	4.78 µM			competitive	558.92 ± 89.12 μg/lens wet weight (g)	~33.8%	15.70 µM	~32.5%	
O=C(O)c1ccc(O)c(O)c1 [Protochatechuic acid (1), protocatechuic acid]					> 64.9 µM								3.22%
O=c1c(O)c(-c2ccc(O)c(O)c2)oc2cc(O)cc(O)c12 [Quercetin, quercetin, reference compound]	30.3%	67.9%	83%						448.81 ± 69.43 μg/lens wet weight (g)	46.8%	16.15 µM	30.5%	

More lines, main results first:

inhibition at 1 µg/mL ([1]; mean of triplicate)	inhibition at 5 µg/mL ([1]; mean of triplicate)	inhibition at 10 µg/mL [1, 5]	IC50 ([1]; read-out: IC50 (μM) RLAR)	IC50 [1, 6]	RLAR inhibitory activity (in words) [1]	inhibition at 40 µg/mL ([1]; mean of triplicate)	SMILES	Inhibition type of rhAR [2]	Galactitol content μg/lens wet weight (g) [3]	inhibition at 5 µg/mL [3]	Galactitol content (μM) in rat erythrocyte [4]	inhibition at 50 µg/mL [4]	inhibition at 10 µg/mL [1]
11.2%	49.8%	77.2%	21.9 µM	21.8 µM			COc1cc(/C=C/C(=O)O)ccc1O [Ferulic acid (5), ferulic acid]						
				> 92.3 µM	did not RLAR inhibitory activity	13.2%	OC[C@H]1O[C@@H](Oc2cc3c(O)cc(O)cc3[o+]c2-c2ccc(O)cc2)[C@H](O)[C@@H](O)[C@@H]1O [Pelargonidin-3-glucoside (9), pelargonidin-3-glucoside]						
				> 86.3 µM	did not RLAR inhibitory activity	37%	COc1cc(-c2[o+]c3cc(O)cc(O)c3cc2O[C@@H]2O[C@H](CO)[C@@H](O)[C@H](O)[C@H]2O)ccc1O [Peonidin-3-glucoside (10), peonidin-3-glucoside]						
		20.3%		> 59.5 µM			COc1cc(C(=O)O)ccc1O [Vanillic acid (2), vanillic acid]						
13.8%	43.7%	77.8%	36.7 µM	36.7 µM			O=C(O)C=Cc1ccc(O)cc1 [p-hydroxycinnamic acid (4), p-hydroxycinnamic acid]						
				> 19.3 µM	did not RLAR inhibitory activity		O=C(O)CC(=O)OC[C@H]1O[C@@H](Oc2cc3c(O)cc(O)cc3[o+]c2-c2ccc(O)cc2)[C@H](O)[C@@H](O)[C@@H]1O [pelargonidin 3-(6′′-malonylglucoside)]						
